Experimental data from the supplement of paper PMC6315032.

Experiments:
Assay in all cases: apparent dissociation constant (pKDapp, Kinobeads competition, Cheng-Prusoff corrected) (-log10 M); higher = tighter binding
[1] = target: IRAK4 (UniProt Q9NWZ3); details: affinity matrix / lysate: Kinobeads, mixed HEK293/K-562/placenta lysate
[2] = target: LIMK1 (UniProt P53667); details: affinity matrix / lysate: Kinobeads, mixed HEK293/K-562/placenta lysate
[3] = target: TESK2 (UniProt Q96S53); details: affinity matrix / lysate: Kinobeads, mixed HEK293/K-562/placenta lysate
[4] = target: FGFR1 (UniProt P11362); details: affinity matrix / lysate: Kinobeads, mixed HEK293/K-562/placenta lysate
[5] = target: PIK3CA (UniProt P42336); details: affinity matrix / lysate: Lipid Kinobeads, mixed HeLa/Jurkat/K-562 lysate
[6] = target: TEK (UniProt Q02763); details: affinity matrix / lysate: Kinobeads, mixed HEK293/K-562/placenta lysate
[7] = target: EPHA1 (UniProt P21709); details: affinity matrix / lysate: Kinobeads, mixed HEK293/K-562/placenta lysate
[8] = target: SLK (UniProt Q9H2G2); details: affinity matrix / lysate: Kinobeads, mixed HEK293/K-562/placenta lysate
[9] = target: BMPR1B (UniProt O00238); details: affinity matrix / lysate: Kinobeads, mixed HEK293/K-562/placenta lysate
[10] = target: RPS6KA6 (UniProt Q9UK32); details: affinity matrix / lysate: Kinobeads, mixed HEK293/K-562/placenta lysate
[11] = target: MARK2 (UniProt Q7KZI7); details: affinity matrix / lysate: Kinobeads, mixed HEK293/K-562/placenta lysate
[12] = target: MAPK11 (UniProt Q15759); details: affinity matrix / lysate: Kinobeads, mixed HEK293/K-562/placenta lysate
[13] = target: BRSK1 (UniProt Q8TDC3); details: affinity matrix / lysate: Kinobeads, mixed HEK293/K-562/placenta lysate
[14] = target: ULK1 (UniProt O75385); details: affinity matrix / lysate: Kinobeads, mixed HEK293/K-562/placenta lysate
[15] = target: PCTK2 (UniProt Q00537); details: affinity matrix / lysate: Kinobeads, mixed HEK293/K-562/placenta lysate
[16] = target: IRAK1 (UniProt P51617); details: affinity matrix / lysate: Kinobeads, mixed HEK293/K-562/placenta lysate
[17] = target: PRKCB (UniProt P05771); details: affinity matrix / lysate: Kinobeads, mixed HEK293/K-562/placenta lysate
[18] = target: STK17A (UniProt Q9UEE5); details: affinity matrix / lysate: Kinobeads, mixed HEK293/K-562/placenta lysate
[19] = target: ACVR1 (UniProt Q04771); details: affinity matrix / lysate: Kinobeads, mixed HEK293/K-562/placenta lysate
[20] = target: GSK3A (UniProt P49840); details: affinity matrix / lysate: Kinobeads, mixed HEK293/K-562/placenta lysate
[21] = target: PIP5K3 (UniProt Q9Y2I7); details: affinity matrix / lysate: Kinobeads, mixed HEK293/K-562/placenta lysate
[22] = target: PI4K2B (UniProt Q8TCG2); details: affinity matrix / lysate: Lipid Kinobeads, mixed HeLa/Jurkat/K-562 lysate
[23] = target: MAPK6 (UniProt Q16659); details: affinity matrix / lysate: Kinobeads, mixed HEK293/K-562/placenta lysate
[24] = target: STRADA (UniProt Q7RTN6); details: affinity matrix / lysate: Kinobeads, mixed HEK293/K-562/placenta lysate
[25] = target: STK39 (UniProt Q9UEW8); details: affinity matrix / lysate: Kinobeads, mixed HEK293/K-562/placenta lysate
[26] = target: CDK2 (UniProt P24941); details: affinity matrix / lysate: Kinobeads, mixed HEK293/K-562/placenta lysate
[27] = target: PDPK1 (UniProt O15530); details: affinity matrix / lysate: Kinobeads, mixed HEK293/K-562/placenta lysate
[28] = target: RPS6KA4 (UniProt O75676); details: affinity matrix / lysate: Kinobeads, mixed HEK293/K-562/placenta lysate
[29] = target: AURKB (UniProt Q96GD4); details: affinity matrix / lysate: Kinobeads, mixed HEK293/K-562/placenta lysate
[30] = target: NEK6 (UniProt Q9HC98); details: affinity matrix / lysate: Kinobeads, mixed HEK293/K-562/placenta lysate
[31] = target: TAOK3 (UniProt Q9H2K8); details: affinity matrix / lysate: Kinobeads, mixed HEK293/K-562/placenta lysate
[32] = target: ABL2 (UniProt P42684); details: affinity matrix / lysate: Kinobeads, mixed HEK293/K-562/placenta lysate
[33] = target: CIT (UniProt O14578); details: affinity matrix / lysate: Kinobeads, mixed HEK293/K-562/placenta lysate

Chain of ABL2 (P42684 whole entry): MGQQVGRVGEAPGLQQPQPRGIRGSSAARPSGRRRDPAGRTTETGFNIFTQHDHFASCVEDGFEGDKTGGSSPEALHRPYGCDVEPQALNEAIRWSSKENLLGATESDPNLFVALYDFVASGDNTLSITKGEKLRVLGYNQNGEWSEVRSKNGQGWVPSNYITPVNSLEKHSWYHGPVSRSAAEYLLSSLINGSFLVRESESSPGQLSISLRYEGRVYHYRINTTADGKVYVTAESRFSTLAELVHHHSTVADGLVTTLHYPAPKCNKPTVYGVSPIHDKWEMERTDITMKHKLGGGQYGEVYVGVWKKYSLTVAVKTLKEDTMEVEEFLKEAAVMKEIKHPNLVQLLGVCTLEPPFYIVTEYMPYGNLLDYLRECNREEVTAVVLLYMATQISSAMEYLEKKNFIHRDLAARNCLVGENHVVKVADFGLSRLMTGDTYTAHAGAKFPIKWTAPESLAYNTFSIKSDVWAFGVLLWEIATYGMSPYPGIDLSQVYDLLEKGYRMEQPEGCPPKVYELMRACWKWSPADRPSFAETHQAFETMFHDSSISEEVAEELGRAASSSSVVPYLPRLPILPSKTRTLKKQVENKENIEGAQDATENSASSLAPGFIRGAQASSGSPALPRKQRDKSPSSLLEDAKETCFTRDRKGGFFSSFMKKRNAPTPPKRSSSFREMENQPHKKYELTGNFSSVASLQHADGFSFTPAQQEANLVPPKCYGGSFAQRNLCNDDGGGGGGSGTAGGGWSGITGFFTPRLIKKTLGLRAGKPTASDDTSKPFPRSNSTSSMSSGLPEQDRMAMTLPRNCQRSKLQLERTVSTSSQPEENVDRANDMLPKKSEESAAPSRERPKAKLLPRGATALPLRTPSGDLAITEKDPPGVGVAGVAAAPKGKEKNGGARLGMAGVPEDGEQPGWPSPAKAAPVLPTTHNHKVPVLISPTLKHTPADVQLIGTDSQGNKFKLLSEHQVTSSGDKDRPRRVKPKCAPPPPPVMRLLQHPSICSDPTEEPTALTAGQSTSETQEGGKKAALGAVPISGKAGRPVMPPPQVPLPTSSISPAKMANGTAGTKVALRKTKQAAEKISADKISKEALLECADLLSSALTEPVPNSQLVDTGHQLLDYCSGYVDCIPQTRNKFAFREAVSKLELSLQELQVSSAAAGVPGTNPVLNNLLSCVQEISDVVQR
Chain of MAPK6 (Q16659 whole entry): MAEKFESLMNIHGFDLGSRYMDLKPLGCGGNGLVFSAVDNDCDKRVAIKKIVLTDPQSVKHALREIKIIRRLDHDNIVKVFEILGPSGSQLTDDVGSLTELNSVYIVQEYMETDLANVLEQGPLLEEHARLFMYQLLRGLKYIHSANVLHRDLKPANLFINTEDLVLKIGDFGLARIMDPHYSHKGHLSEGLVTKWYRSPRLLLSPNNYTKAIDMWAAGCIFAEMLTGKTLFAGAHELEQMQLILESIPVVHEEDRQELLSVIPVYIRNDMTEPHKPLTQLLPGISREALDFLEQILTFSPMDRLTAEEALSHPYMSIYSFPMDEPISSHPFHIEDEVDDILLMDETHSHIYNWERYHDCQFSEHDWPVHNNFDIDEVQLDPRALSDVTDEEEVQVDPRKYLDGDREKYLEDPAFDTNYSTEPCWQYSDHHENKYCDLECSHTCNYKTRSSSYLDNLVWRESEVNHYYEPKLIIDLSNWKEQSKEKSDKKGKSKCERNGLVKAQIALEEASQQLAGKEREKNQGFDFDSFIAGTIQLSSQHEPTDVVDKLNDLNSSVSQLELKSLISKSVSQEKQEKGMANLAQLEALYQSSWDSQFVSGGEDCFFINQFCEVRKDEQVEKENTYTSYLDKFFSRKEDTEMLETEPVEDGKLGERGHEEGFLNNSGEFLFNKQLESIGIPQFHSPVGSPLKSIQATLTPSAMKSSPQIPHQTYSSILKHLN
Chain of TAOK3 (Q9H2K8 whole entry): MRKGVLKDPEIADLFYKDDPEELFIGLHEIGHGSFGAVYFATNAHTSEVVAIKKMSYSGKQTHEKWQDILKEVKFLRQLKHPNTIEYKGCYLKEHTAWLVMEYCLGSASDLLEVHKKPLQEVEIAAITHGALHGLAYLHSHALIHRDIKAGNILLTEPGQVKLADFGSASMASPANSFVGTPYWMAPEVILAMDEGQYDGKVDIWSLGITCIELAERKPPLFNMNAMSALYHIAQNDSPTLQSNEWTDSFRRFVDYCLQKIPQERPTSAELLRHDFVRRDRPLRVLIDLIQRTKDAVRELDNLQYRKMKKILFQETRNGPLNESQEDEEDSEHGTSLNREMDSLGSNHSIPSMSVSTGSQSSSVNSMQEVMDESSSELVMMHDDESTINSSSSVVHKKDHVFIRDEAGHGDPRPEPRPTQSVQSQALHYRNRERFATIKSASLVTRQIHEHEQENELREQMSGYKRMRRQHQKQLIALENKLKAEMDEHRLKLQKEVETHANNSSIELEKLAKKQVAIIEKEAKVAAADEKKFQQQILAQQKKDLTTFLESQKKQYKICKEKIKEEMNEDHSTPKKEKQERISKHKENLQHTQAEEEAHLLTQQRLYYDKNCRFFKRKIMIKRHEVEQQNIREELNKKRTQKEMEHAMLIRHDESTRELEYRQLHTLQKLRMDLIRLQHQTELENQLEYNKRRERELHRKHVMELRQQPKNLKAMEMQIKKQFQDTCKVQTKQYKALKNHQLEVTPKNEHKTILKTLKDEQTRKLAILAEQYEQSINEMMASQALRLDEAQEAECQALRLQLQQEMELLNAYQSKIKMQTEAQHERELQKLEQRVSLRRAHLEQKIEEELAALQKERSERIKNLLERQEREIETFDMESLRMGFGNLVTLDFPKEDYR
Chain of MARK2 (Q7KZI7 whole entry): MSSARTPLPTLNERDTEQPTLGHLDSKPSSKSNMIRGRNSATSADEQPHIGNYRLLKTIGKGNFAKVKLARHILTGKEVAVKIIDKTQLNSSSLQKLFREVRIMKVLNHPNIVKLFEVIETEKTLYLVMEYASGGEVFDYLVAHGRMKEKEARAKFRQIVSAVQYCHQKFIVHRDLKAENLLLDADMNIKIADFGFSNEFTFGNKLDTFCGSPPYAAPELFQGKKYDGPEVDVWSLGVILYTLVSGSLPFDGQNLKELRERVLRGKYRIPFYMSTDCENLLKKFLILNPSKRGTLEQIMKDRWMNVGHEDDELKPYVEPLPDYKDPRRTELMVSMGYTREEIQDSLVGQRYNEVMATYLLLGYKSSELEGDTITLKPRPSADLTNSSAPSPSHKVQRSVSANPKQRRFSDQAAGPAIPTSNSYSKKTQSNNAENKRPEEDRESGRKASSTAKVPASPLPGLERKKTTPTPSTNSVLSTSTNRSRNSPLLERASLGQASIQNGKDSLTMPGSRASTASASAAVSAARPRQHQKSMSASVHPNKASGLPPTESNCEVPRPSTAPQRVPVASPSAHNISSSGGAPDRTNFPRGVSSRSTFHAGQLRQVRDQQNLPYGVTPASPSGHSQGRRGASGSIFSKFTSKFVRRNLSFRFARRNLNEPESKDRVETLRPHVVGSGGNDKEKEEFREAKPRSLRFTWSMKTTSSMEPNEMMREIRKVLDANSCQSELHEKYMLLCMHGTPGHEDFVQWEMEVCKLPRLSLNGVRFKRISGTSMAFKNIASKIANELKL
Chain of PI4K2B (Q8TCG2 whole entry): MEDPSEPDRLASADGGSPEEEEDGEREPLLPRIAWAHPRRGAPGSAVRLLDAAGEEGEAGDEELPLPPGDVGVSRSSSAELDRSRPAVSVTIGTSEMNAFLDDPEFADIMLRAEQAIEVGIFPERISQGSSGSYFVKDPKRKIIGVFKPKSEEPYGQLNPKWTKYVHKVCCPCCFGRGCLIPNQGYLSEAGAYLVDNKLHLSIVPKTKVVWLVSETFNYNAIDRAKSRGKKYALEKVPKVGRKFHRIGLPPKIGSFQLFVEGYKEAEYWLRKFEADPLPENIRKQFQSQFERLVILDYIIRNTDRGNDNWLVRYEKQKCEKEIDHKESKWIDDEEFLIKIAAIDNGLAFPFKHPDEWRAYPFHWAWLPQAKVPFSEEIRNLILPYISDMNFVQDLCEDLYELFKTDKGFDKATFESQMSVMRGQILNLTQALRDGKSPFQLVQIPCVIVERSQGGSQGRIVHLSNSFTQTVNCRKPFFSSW
Chain of GSK3A (P49840 whole entry, looked up): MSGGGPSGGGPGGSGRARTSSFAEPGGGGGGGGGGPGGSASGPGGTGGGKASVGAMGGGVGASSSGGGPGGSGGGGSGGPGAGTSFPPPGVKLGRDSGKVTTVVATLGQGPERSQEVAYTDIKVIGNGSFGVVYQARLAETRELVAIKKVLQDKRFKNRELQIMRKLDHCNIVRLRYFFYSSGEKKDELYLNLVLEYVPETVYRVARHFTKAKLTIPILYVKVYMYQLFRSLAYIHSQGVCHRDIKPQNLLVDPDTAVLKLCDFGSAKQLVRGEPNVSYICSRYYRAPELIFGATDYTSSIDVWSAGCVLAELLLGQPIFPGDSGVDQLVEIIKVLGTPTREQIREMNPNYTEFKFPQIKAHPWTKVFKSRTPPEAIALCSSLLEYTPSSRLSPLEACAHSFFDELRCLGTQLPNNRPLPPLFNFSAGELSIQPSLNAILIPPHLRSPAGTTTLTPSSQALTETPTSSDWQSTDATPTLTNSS
Chain of IRAK4 (Q9NWZ3 whole entry): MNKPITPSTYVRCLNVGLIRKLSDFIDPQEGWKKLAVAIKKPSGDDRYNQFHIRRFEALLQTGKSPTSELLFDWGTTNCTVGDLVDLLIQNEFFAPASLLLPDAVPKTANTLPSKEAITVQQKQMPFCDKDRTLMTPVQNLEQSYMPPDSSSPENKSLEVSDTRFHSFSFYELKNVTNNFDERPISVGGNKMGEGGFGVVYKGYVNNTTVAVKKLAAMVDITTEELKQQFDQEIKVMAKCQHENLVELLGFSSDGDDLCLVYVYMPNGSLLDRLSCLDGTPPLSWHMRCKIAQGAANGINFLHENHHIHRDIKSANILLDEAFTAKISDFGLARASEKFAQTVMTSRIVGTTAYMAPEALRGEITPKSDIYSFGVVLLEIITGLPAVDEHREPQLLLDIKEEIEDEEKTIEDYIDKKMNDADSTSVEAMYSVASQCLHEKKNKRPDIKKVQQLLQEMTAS

| apparent dissociation constant (-log10 M) [1] | apparent dissociation constant (-log10 M) [2] | apparent dissociation constant (-log10 M) [3] | apparent dissociation constant (-log10 M) [4] | apparent dissociation constant (-log10 M) [5] | apparent dissociation constant (-log10 M) [6] | apparent dissociation constant (-log10 M) [7] | apparent dissociation constant (-log10 M) [8] | apparent dissociation constant (-log10 M) [9] | apparent dissociation constant (-log10 M) [10] | apparent dissociation constant (-log10 M) [11] | apparent dissociation constant (-log10 M) [12] | apparent dissociation constant (-log10 M) [13] | apparent dissociation constant (-log10 M) [14] | apparent dissociation constant (-log10 M) [15] | apparent dissociation constant (-log10 M) [16] | apparent dissociation constant (-log10 M) [17] | apparent dissociation constant (-log10 M) [18] | apparent dissociation constant (-log10 M) [19] | apparent dissociation constant (-log10 M) [20] | apparent dissociation constant (-log10 M) [21] | apparent dissociation constant (-log10 M) [22] | apparent dissociation constant (-log10 M) [23] | apparent dissociation constant (-log10 M) [24] | apparent dissociation constant (-log10 M) [25] | apparent dissociation constant (-log10 M) [26] | apparent dissociation constant (-log10 M) [27] | apparent dissociation constant (-log10 M) [28] | apparent dissociation constant (-log10 M) [29] | apparent dissociation constant (-log10 M) [30] | apparent dissociation constant (-log10 M) [31] | apparent dissociation constant (-log10 M) [32] | apparent dissociation constant (-log10 M) [33] | Compound |
| --- | --- | --- | --- | --- | --- | --- | --- | --- | --- | --- | --- | --- | --- | --- | --- | --- | --- | --- | --- | --- | --- | --- | --- | --- | --- | --- | --- | --- | --- | --- | --- | --- | --- |
| < 6 | < 6 | < 6 | < 6 | 7.17 | < 6 | < 6 | < 6 | < 6 | < 6 | < 6 | < 6 | < 6 | < 6 | < 6 | < 6 | < 6 | < 6 | < 6 | < 6 | < 6 | < 6 | < 6 | < 6 | < 6 | < 6 | < 6 | < 6 | < 6 | < 6 | < 6 | < 6 | < 6 | COc1ccc(-c2ccc3c(N4CCOC[C@@H]4C)nc(N4CCOC[C@@H]4C)nc3n2)cc1CO [AZD8055] |
| < 6 | < 6 | < 6 | < 6 | < 6 | < 6 | < 6 | < 6 | < 6 | < 6 | < 6 | < 6 | < 6 | < 6 | < 6 | < 6 | < 6 | < 6 | < 6 | < 6 | < 6 | < 6 | < 6 | < 6 | < 6 | < 6 | < 6 | < 6 | < 6 | < 6 | < 6 | < 6 | < 6 | CCNC(=O)Nc1ccc(-c2nc(N3CCOC[C@@H]3C)c3c(n2)C(C)(C)S(=O)(=O)C3)cc1 [CZ415] |
